From paper PMC8924211 (Nature Communications, 2022)
Where a chain is given by its changes, count along the chain named.

Experiments:
GAL2R over GAL1R = settings: cross-reactivity to galanin receptors; cited from earlier work
Text: In contrast, L^4P contacts with equivalent ECL2 residues with weaker hydrophobicity (L169^ECL2, A170^ECL2, and L172^ECL2) in GAL2R (Fig. 3e, Supplementary Fig. 4b). The structural observation is coincident with our peptide truncation assay.

GAL2R mutants [1] = molecular target: T1, GAL2R mutants (Homo sapiens, UniProt O43603, I256A); test: Calcium assay, HEK293/Gα16 cells, GAL2R mutants; type: cell-based; settings: GAL2R I2566.55A
T1 construct: expressed in transfected cells; host or cells: HEK293
T1 sequence (O43603 1-387 I256A): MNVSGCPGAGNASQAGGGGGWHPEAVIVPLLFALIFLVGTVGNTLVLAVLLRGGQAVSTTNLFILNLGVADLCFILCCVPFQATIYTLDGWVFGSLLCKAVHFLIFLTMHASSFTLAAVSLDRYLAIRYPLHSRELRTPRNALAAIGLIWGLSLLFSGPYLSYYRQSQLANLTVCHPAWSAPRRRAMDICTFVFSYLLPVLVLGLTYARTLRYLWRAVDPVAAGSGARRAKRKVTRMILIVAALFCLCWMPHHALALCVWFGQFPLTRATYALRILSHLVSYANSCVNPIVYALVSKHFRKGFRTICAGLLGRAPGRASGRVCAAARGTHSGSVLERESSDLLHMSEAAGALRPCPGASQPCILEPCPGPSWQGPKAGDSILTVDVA

GAL2R mutants [2] = molecular target: T2, GAL2R mutants (Homo sapiens, UniProt O43603, H102A); test: Calcium assay, HEK293/Gα16 cells, GAL2R mutants; type: cell-based; settings: GAL2R H1023.29A
T2 construct: expressed in transfected cells; host or cells: HEK293
T2 sequence (O43603 1-387 H102A): T1 sequence (O43603 1-387 I256A) with H102A, A256I

GAL2R mutants [3] = molecular target: T3, GAL2R mutants (Homo sapiens, UniProt O43603, F264A); test: Calcium assay, HEK293/Gα16 cells, GAL2R mutants; type: cell-based; settings: GAL2R F264ECL3A
T3 construct: expressed in transfected cells; host or cells: HEK293
T3 sequence (O43603 1-387 F264A): T1 sequence (O43603 1-387 I256A) with A256I, F264A

GAL2R mutants [4] = molecular target: T4, GAL2R mutants (Homo sapiens, UniProt O43603, L266A); test: Calcium assay, HEK293/Gα16 cells, GAL2R mutants; type: cell-based; settings: GAL2R L266ECL3A
T4 construct: expressed in transfected cells; host or cells: HEK293
T4 sequence (O43603 1-387 L266A): T1 sequence (O43603 1-387 I256A) with A256I, L266A

GAL2R = molecular target: T5, GAL2R (Homo sapiens, UniProt O43603); test: Calcium assay, HEK293/Gα16 cells, WT GAL2R; type: cell-based
T5 construct: expressed in transfected cells; host or cells: HEK293/Gα16
T5 sequence (O43603 1-387): T1 sequence (O43603 1-387 I256A) with A256I

[5] = response of 100 μM spexin compared to WT, mean ± S.E.M.

In the case of spexin, the “affinity for GALR2 versus GALR1” value (GAL2R over GAL1R) is listed as “high affinity for GALR2 but not GALR1”, the Emax (GAL2R mutants [1]; [5]) is listed as 67.24±0.5% and the Emax (GAL2R mutants [1]; spexin, replicate 1) is listed as 66.4324%. The EC50 (GAL2R mutants [1]; spexin, replicate 2) was 437.9 nM, the Emax (GAL2R mutants [1]; spexin, replicate 2) was 67.278% and the EC50 (GAL2R mutants [1]; spexin, replicate 3) was 924.3 nM. The Emax (GAL2R mutants [1]; spexin, replicate 3) was 68.0243%, the Emax (GAL2R mutants [2]; response of 100 μM spexin compared to WT) was “NR (NR, no response, refers to response < 10% compared to WT receptor (spexin at 100 μM))” and the Emax (GAL2R mutants [2]; spexin, replicate 1) was “no response”. For the same substance, the Emax (GAL2R mutants [2]; spexin, replicate 2) was “no response”, the Emax (GAL2R mutants [2]; spexin, replicate 3) was “no response” and the Emax (GAL2R mutants [3]; [5]) was 40.26±1.3%. It also gave an Emax (GAL2R mutants [3]; spexin, replicate 1) of 42.8699%, an Emax (GAL2R mutants [3]; spexin, replicate 2) of 39.5775% and an Emax (GAL2R mutants [3]; spexin, replicate 3) of 38.3476%. It also gave an Emax (GAL2R mutants [4]; [5]) of 103.14±6.2%, an EC50 (GAL2R mutants [4]; spexin, replicate 1) of 25140 nM and an Emax (GAL2R mutants [4]; spexin, replicate 1) of 98.5714%. It also gave an EC50 (GAL2R mutants [4]; spexin, replicate 2) of 15280 nM, an Emax (GAL2R mutants [4]; spexin, replicate 2) of 95.5224% and an EC50 (GAL2R mutants [4]; spexin, replicate 3) of 11990 nM. It also gave an Emax (GAL2R mutants [4]; spexin, replicate 3) of 115.328%, an Emax (GAL2R; [5]) of 100±4.9% and an EC50 (GAL2R; spexin, replicate 1) of 326.8 nM. For the same substance, the Emax (GAL2R; spexin, replicate 1) was 101.879%, the EC50 (GAL2R; spexin, replicate 2) was 177.5 nM and the Emax (GAL2R; spexin, replicate 2) was 107.462%. It also gave an EC50 (GAL2R; spexin, replicate 3) of 81.38 nM and an Emax (GAL2R; spexin, replicate 3) of 90.6585%.
